# Patent US7678812B2, “Aminotetralin-derived urea modulators of vanilloid VR1 receptor” (Janssen Pharmaceutica NV, priority 2002, dated 2010)
# Like-named read-outs stand apart in the source and are kept apart here.
# Key:
# Rat VR1 [1] = target: T1, Rat VR1 (Rattus norvegicus, UniProt O35433); experiment: [3H]-RTX binding assay using rat tissue (spinal cord); design: Rat spinal cord was homogenized twice with a Polytron; from tissue; host or cells: rat spinal cord membranes; details: rat spinal cord membranes
# Method: Alternatively, a binding assay using rat tissue was used. Rat spinal cord was homogenized twice with a Polytron and centrifuged at 3000 rpm for 10 min in HEPES buffer containing 20 mM HEPES, pH 7.4, NaCl 5.8 mM, sucrose 320 mM, MgCl2 2 mM, CaCl2 0.75 mM and KCl 5 mM. The supernatant was then centrifuged at 18,000 rpm for 20 min. The pellet was saved in a tube and 10 ml assay buffer was added into the tube. The pellet and buffer were mixed with a Polytron. The assay contained 120 μg/ml membrane protein and 0.3-0.6 nM [^3H]-RTX (NEN, Boston) in a total volume of 0.5 ml HEPES buffer. Following-incubation for 60 min at 37 C, the samples were cooled down on ice, and 100 mg of α-acid glycoprotein were added into the samples. After centrifugation at 13,000 rpm for 15 min, the supernatant was aspirated and the tips of tubes were cut off and placed into 6 ml vials. Data were calculated according to the equation: % inhibition=(total binding−binding)*100/(total binding−non specific binding). Ki value values were calculated using a Prism program.
# hVR1 receptors [2] = target: T2, hVR1 receptors (Homo sapiens, UniProt Q8NER1); experiment: [3H] RTX binding assay, human VR1; design: expressed in transfected cells; host or cells: HEK293 (membrane preparation); details: inhibition of [3H] RTX binding, membranes of HEK293 cells transfected with human VR1
# Method: Compounds of the present invention were tested for their ability to inhibit the binding of [^3H] RTX to hVR1 receptors in a [^3H] RTX binding assay as previously described (Zhang, Sui-Po. Improved ligand binding assays for vanilloid receptors. PCT Int. Appl. (2002), 29 pp. CODEN: PIXXD2 WO 0233411 A1 20020425 AN 2002:315209; Grant, Elfrida R.; Dubin, Adrienne E.; Zhang, Sui-Po; Zivin, Robert A.; Zhong, Zhong Simultaneous intracellular calcium and sodium flux imaging in human vanilloid receptor 1 (VR1)-transfected human embryonic kidney cells: a method to resolve ionic dependence of VR1-mediated cell death. Journal of Pharmacology and Experimental Therapeutics (2002), 300(1), 9-17.)
# HEK293 cells were transfected with human VR1 vanilloid receptors and washed with Hank's Balanced Salt Solution, dissociated with cell dissociation buffer (Sigma), and then centrifuged at 1000×g for 5 min. Cell pellets were homogenized in cold 20 mM HEPES buffer, pH 7.4, containing 5.8 mM NaCl, 320 mM sucrose, 2 mM MgCl2, 0.75 CaCl2 and 5 mM KCl and centrifuged at 1000×g for 15 min. The resultant supernate was then centrifuged at 40000×g for 15 min. The pelleted membranes were kept in an −80° C. freezer.
# Approximately 120 μg protein/ml from membranes were incubated with indicated concentrations of [^3H] RTX in 0.5 ml of the HEPES buffer (pH 7.4) containing 0.25 mg/mL fatty acid-free bovine serum albumin at 37° C. for 60 min. The reaction mixture was then cooled to 4° C., 0.1 mg α1-acid glycoprotein added to each sample and incubated at 4° C. for 15 min. The samples were centrifuged at 18500×g for 15 min. The tip of the microcentrifuge tube containing the pellet was cut off. Bound radioactivity was quantified by scintillation counting. Non-specific binding was tested in the presence of 200 nM unlabeled RTX.
# [3] = test system: carrageenan paw-induced thermal hyperalgesia; experiment: Carrageenan paw-induced thermal hyperalgesia; type: in vivo, rat; details: for % Recovery: at 1 mg/ml; for ED50: Rattus norvegicus, po
# Method: Each rat was placed on a heated surface (51° C.) in order to measure the time necessary to elicit a response, and an initial (baseline) response time to a thermal stimuli was recorded for each animal. A response is defined as any shaking, licking, or tucking of the treated paw or jumping. Animals not treated with a test compound respond in approximately 20 seconds. The maximal exposure time permitted is 60 seconds to prevent tissue damage. Rats were injected with an irritant (e.g., 1% carrageenan solution in 0.9% saline) subcutaneously into the sub-plantar tissue of the left hind paw to stimulate an acute inflammatory reaction.
# Two hours later, the response time of the animal to the thermal stimulus was evaluated and compared to the animal's baseline response time. This shorter response time was recorded as percent hyperalgesia (% H). A cut-off value for % H (usually 75%) was used during analysis to ensure that the animals were hyperalgesic. Animals were then dosed with test drug or vehicle.
# At some time(s) later (typically 45 and 90 minutes), the response time of the animal to the thermal stimulus was again evaluated. For each time point, a percent reversal of hyperalgesia (% R) was calculated using the following formula: % R=(Drug Latency−Carrageenan latency)/(Baseline latency−Carrageenan latency). ED50 values were calculated from % R obtained at several drug doses.
# [4] = target: T3, VR1 expressed endogenously on small rat dorsal root ganglion (DRG) neurons (Rattus norvegicus, UniProt O35433); experiment: Electrophysiologic functional assay using dissociated rat DRG cells (whole cell patch clamp); type: cell-based; details: for inhibition of the response to 1 uM capsaicin: capsaicin-induced currents in rat DRG neurons; for % of the initial CAP response in presence of 1 uM CAP / % of the initial CAP response in presence of 10 uM CAP: initial response to 0.3 uM capsaicin
# T3 construct: VR1 expressed endogenously on small rat dorsal root ganglion (DRG) neurons; endogenous in cells; host or cells: dissociated DRG neurons from normal rats
# Method: Compounds 42, 95, 101, 105 and 106 were tested for their activity on VR1 expressed endogenously on small rat dorsal root ganglion (DRG) neurons. DRG neurons from normal rats were dissociated (see methods in Chaplan et al., 2003) and whole cell currents mediated by VR1 were recorded using the whole cell patch clamp technique. […] This was followed by application of 10 μM CAP in the presence of compound. […] The ability of 1 and 10 μM CAP to cause an increased current after exposure to a compound of the invention was compared to controls.
# hVR1 receptors [5] = target: T2, hVR1 receptors; experiment: Broadly stimulated recombinant human VR1 functional assay (Ca2+ influx, FLIPR); type: cell-based; design: expressed in transfected cells; host or cells: HEK293
# Rat VR1 [6] = target: T1, Rat VR1; experiment: Broadly stimulated recombinant rat VR1 functional assay (Ca2+ influx, FLIPR); type: cell-based; design: expressed in transfected cells; details: rat recombinant VR1, increase in intracellular Ca2+; read-out: EC50 for PMA
# From the text: When nociceptors are exposed to tissue damaging stimuli, VR1 receptors are activated by a plethora of stimuli. In an effort to identify potent and efficacious antagonists at human and rat VR1 that were active under conditions simulating aspects of in vivo inflammation functional assays were developed using FLIPR to determine antagonist activity against endogenous activators and stimuli likely to be present in inflammation. Cell lines were constructed that stably expressed recombinant rat VR1 (rVR1/HEK293). Cells were exposed to various stimuli at their EC80, with the exception of the low pH and DTT stimuli.
# Phoshorylation by PKC. […] Cells were challenged with 300 nM PMA (˜EC80) after 3 min in the indicated antagonist.
# Anandamide. Anandamide is a brain-derived cannabinoid ligand that acts as a near full agonist at VR1 at low μM concentrations [Smart, 2000 #507].
# Reactive oxygen species: Disturbances in the regulatory activities of free radicals may play a role in inflammation [Winrow, 1993]. Reactive oxygen species (ROS) such as H2O2 are formed in inflamed joints.
# Reducing agents: The reducing agent DTT also directly activates VR1 [Vyklicky, 2002]. Cells were challenged with 5-10 mM DTT to stimulate VR1 after 3 min incubation in compound.
# Since many of our animal models were in rat, we cloned the rat VR1 and expressed it stably in HEK293 cells.
# [7] = reversal of hyperalgesia, read-out: CgHP ED50
# [8] = 1.5 h, p.o., at 90 min, read-out: ED50
# T1 sequence (O35433 whole entry): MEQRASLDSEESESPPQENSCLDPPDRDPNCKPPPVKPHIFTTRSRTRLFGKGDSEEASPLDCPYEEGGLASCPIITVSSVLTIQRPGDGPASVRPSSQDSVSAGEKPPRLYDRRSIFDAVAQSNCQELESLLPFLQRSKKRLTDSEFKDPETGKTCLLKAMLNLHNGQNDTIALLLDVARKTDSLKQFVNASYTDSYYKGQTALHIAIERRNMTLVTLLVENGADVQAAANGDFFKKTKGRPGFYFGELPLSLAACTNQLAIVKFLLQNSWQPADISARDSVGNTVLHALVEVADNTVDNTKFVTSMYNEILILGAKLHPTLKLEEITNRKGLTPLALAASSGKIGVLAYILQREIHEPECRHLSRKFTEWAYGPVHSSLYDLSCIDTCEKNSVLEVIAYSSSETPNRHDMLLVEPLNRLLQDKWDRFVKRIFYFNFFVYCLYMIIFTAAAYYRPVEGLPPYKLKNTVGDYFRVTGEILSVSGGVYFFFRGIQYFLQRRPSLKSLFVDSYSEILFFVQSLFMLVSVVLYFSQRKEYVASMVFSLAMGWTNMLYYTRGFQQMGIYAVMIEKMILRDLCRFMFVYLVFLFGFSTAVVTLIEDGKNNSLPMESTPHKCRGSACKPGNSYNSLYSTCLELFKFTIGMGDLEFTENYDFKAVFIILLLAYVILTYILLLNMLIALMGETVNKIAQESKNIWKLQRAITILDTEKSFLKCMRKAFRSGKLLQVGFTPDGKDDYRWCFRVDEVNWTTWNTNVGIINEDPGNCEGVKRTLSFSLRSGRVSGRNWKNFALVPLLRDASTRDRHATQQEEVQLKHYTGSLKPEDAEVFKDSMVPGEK
# T3 sequence (O35433 whole entry): as above
# T2 sequence (Q8NER1 whole entry): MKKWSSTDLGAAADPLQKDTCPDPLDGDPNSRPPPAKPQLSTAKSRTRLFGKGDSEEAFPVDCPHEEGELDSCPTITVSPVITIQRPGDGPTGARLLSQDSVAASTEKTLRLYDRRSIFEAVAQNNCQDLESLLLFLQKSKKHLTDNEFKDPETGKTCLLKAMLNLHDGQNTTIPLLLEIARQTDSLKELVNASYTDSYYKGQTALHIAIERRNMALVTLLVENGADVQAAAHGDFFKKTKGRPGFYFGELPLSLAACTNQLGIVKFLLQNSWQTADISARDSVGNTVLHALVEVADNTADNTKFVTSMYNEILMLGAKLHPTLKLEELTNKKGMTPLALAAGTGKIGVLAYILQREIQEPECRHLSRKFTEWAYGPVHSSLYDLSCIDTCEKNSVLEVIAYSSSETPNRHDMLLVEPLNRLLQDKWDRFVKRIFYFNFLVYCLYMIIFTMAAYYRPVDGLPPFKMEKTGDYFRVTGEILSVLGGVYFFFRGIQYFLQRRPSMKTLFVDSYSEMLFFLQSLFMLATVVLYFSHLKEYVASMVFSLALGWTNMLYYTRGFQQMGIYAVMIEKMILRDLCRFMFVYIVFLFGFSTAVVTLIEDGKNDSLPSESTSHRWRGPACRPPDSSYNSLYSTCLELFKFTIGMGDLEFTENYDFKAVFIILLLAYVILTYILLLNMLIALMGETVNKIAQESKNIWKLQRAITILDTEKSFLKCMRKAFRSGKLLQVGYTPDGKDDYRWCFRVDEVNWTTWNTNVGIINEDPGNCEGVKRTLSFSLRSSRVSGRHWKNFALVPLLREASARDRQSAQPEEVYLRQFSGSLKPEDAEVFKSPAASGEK
SMILES,Ki (Rat VR1 [1]) [nM],Ki (hVR1 receptors [2]) [nM],other results
O=C(Nc1cccc2cnccc12)NC1CCc2cc(F)ccc2C1Cc1cccc(C(F)(F)F)c1 (racemic) [Compound 110],185,0.531,% Recovery ([3]; at 90 min): 64.3%
O=C(Nc1cccc2cnccc12)N[C@@H]1CCc2cc(F)ccc2[C@@H]1Cc1ccoc1 (relative stereo) [Compound 88],1270,15.5,
COc1ccc2c(c1)CC[C@@H](NC(=O)Nc1cccc3cnccc13)[C@H]2Cc1ccc(F)cc1F (relative stereo) [Compound 90],259,,
COc1ccc2c(c1)CC[C@@H](NC(=O)Nc1cccc3cnccc13)[C@@H]2Cc1ccc(F)cc1F (relative stereo) [Compound 91],1480,,
"Cc1cc2c(NC(=O)NC3CCc4cc(F)ccc4C3Cc3ccccc3)cccc2cn1 (single isomer, unassigned) [Compound 100]",781,5.25,
"Cc1cc2c(NC(=O)NC3CCc4cc(F)ccc4C3Cc3ccccc3)cccc2cn1 (single isomer, unassigned) [Compound 101]",53.1,1.12,inhibition of the response to 1 uM capsaicin [4]: dose dependent; % of the initial CAP response in presence of 1 uM CAP ([4]; compound concentration 0.03 uM): 14%; % of the initial CAP response in presence of 10 uM CAP ([4]; compound concentration 0.03 uM): 54%; % of the initial CAP response in presence of 1 uM CAP ([4]; compound concentration 0.1 uM): 0%; % of the initial CAP response in presence of 10 uM CAP ([4]; compound concentration 0.1 uM): 0%
"O=C(Nc1cccc2cnccc12)NC1CCc2cc(F)ccc2C1Cc1cccc(C(F)(F)F)c1 (single isomer, unassigned) [Compound 118]",169,2.16,
"O=C(Nc1cccc2cnccc12)NC1CCc2cc(F)ccc2C1Cc1cccc(C(F)(F)F)c1 (single isomer, unassigned) [Compound 119]",152,0.5,
"O=C(Nc1cccc2c[n+]([O-])ccc12)NC1CCc2cc(F)ccc2C1Cc1cccc(C(F)(F)F)c1 (single isomer, unassigned) [Compound 120]",10000,95.7,% Recovery ([3]; at 90 min): 83.0%
"O=C(Nc1cccc2c[n+]([O-])ccc12)NC1CCc2cc(F)ccc2C1Cc1cccc(C(F)(F)F)c1 (single isomer, unassigned) [Compound 121]",88.5,5.75,% Recovery ([3]; at 90 min): 80.1%
"Oc1cc2c(cc1O)CN(C(=S)NCCc1ccc(Cl)cc1)CCC2 [Capsazepine, capsazepine, reference compound]",,,"IC50 (hVR1 receptors [5]; human recombinant receptor, FIG. 1, read-out: potency to inhibit Ca2+ activity induced by the panel of stimuli): 100 to 300 nM"
COCOc1ccc(CNC(=S)NC2CCc3ccccc3C2Cc2cccnc2)cc1OC (stereo not shown) [Compound 4],,,"ED50 [3, 7]: 0.804 mg/kg"
COc1ccc2c(c1)CCC(NC(=S)NCCc1ccc(Cl)cc1)C2Cc1ccccc1 (stereo not shown) [Compound 17],,,"ED50 [3, 7]: 20 mg/kg"
O=C(Nc1cccc2cnccc12)NC1CCc2c(Cl)cccc2C1Cc1ccccc1 (stereo not shown) [Compound 42],,1.94,% of the initial CAP response in presence of 1 uM CAP ([4]; compound concentration 0.3 uM): 0%
C=CCC1c2ccccc2CCC1NC(=O)Nc1cccc2cnccc12 (stereo not shown) [Compound 57],,15.4,"ED50 [3, 7]: 0.354 mg/kg"
COc1ccc2c(c1)CCC(NC(=O)Nc1cccc3cnccc13)C2Cc1ccsc1 (stereo not shown) [Compound 89],1080,,
O=C(Nc1cccc2cnccc12)NC1CCc2cc(Cl)ccc2C1Cc1ccccc1 (stereo not shown) [Compound 95],217,1.7,inhibition of the response to 1 uM capsaicin [4]: dose dependent; % of the initial CAP response in presence of 1 uM CAP ([4]; compound concentration 0.03 uM): 78%; % of the initial CAP response in presence of 10 uM CAP ([4]; compound concentration 0.03 uM): 1073%
O=C(Nc1cccc2c[n+]([O-])ccc12)NC1CCc2cc(Cl)ccc2C1Cc1ccccc1 (stereo not shown) [Compound 106],2840,8.6,"% of the initial CAP response in presence of 1 uM CAP ([4]; compound concentration 1 uM): 2%; % of the initial CAP response in presence of 10 uM CAP ([4]; compound concentration 1 uM): 11%; ED50 [3, 8]: 0.027 mg/kg"
O=C(Nc1cccc2cnccc12)NC1CCc2cc(F)ccc2C1Cc1ccc(C(F)(F)F)cc1 (stereo not shown) [Compound 107],28.7,0.93,"ED50 [3, 8]: 0.92 mg/kg"
"O=C(Nc1cccc2cnccc12)NC1CCc2ccccc2C12Cc1ccccc1C2 (stereo not shown) [Compound 122, Spiro{indan-2,1′-(1′,2′,3′,4′-tetrahydronaphthalene)-2′-yl}-3-isoquinolin-5-yl-urea]",1700,73,
"OO [Compound H2O2, H2O2, reference compound]",,,"EC80 for H2O2-induced Ca2+ flux (hVR1 receptors [5]; VR1/HEK cells, species not stated): 0.015 % H2O2"
"CCCCCCCCCCCCCC(=O)O[C@@H]1[C@@H](C)[C@@]2(O)[C@@H](C=C(CO)C[C@]3(O)C(=O)C(C)=C[C@@H]23)[C@@H]2C(C)(C)[C@]12OC(C)=O [PMA, phorbol-12-myristate-13-acetate, reference compound]",,,"EC50 (Rat VR1 [6]): 90 nM; EC50 (hVR1 receptors [5]; human recombinant VR1, increase in intracellular Ca2+, read-out: EC50 for PMA): 90 nM"
